Like-named read-outs stand apart in the source and are kept apart here.
Key:
RARγ = target: T1, RARγ (Homo sapiens, UniProt P13631); assay: ligand binding assay, RARγ; conditions: read-out: RAR Bind. Ki γ
T1 sequence (P13631 1-454): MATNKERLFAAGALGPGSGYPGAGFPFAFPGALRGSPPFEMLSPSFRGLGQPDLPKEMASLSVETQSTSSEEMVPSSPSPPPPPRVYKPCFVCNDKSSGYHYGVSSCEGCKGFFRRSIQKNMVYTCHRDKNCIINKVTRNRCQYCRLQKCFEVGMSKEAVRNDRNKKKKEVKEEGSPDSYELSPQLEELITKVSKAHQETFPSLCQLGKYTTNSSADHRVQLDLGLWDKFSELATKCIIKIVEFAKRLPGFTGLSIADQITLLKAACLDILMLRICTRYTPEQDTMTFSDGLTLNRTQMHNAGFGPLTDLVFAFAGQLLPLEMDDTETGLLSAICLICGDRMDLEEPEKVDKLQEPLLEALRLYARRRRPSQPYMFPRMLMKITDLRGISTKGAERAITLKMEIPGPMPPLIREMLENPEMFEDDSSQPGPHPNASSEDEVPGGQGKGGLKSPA
Excerpt: (§1) Other assays described below, measure the ability of the compounds of the present invention to bind to, and/or activate various retinoid receptor subtypes. When in these assays a compound binds to a given receptor subtype and activates the transcription of a reporter gene through that subtype, then the compound is considered an agonist of that receptor subtype. […] In the below described assays the ability of the compounds to bind to RARα, RARβ, RARγ, RXRα, RXRβ and RXRγ receptors, and the ability or inability of the compounds to activate transcription of a reporter gene through these receptor subtypes can be tested. […] However, some of the compounds of the invention may behave as retinoid antagonists or partial antagonists and/or as inverse agonists. Because of the complex distribution of the different retinoid receptors in various organs of the mammalian body partial agonists and partial antagonists and compounds which have the characteristics of both may lend themselves to particularly useful therapeutic applications and may avoid serious side effects of conventional retinoid drugs.
(§2) A holoreceptor transactivation assay and a ligand binding assay which measure the antagonist/agonist like activity of the compounds of the invention, or their ability to bind to the several retinoid receptor subtypes, respectively, are described in published PCT Application No. WO WO93/11755 (particularly on pages 30-33 and 37-41) published on Jun. 24, 1993, the specification of which is also incorporated herein by reference. A detailed experimental procedure for holoreceptor transactivations has been described by Heyman et al. Cell 68, 397-406, (1992); Allegretto et al. J. Biol. Chem. 268, 26625-26633, and Mangelsdorf et al. The Retinoids: Biology, Chemistry and Medicine, pp 319-349, Raven Press Ltd., New York, which are expressly incorporated herein by reference. The results obtained in this assay are expressed in EC50 numbers, as they are also in the chimeric receptor transactivation assay. The results of ligand binding assay are expressed in Kd numbers. (See Cheng et al. Biochemical Pharmacology Vol. 22 pp 3099-3108, expressly incorporated herein by reference.)
(§3) Table 1 discloses the activity of certain exemplary compounds of the invention in the above-described chimeric receptor transactivation assay, holoreceptor transactivation assay and a ligand binding assays. Particularly, the transactivation data pertaining to RAR receptors were obtained in the chimeric assay, and the data pertaining to transactivation of RXR receptors were obtained in the holoreceptor transactivation assay.

RXRβ = assay: ligand binding assay, RXRβ; conditions: read-out: RXR Bind Ki β
Excerpt: as §1, §2, §3

RXRα = target: T2, RXRα (Homo sapiens, UniProt P19793); assay: ligand binding assay, RXRα; conditions: read-out: RXR Bind Ki α
T2 construct: expressed in transfected cells
T2 sequence (P19793 1-462): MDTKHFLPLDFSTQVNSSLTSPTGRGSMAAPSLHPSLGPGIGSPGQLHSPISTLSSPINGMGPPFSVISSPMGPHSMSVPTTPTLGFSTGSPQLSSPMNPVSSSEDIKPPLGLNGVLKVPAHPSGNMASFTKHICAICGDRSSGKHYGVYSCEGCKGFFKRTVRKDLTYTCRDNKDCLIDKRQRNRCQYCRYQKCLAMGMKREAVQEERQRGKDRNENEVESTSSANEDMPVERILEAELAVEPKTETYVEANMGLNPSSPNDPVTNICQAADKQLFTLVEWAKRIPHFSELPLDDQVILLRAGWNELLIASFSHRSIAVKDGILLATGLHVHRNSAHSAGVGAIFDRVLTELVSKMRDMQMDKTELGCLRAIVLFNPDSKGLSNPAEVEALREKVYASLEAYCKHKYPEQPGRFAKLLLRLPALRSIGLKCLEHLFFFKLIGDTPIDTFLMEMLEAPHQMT
Excerpt: as §1, §2, §3

RARα = target: T3, RARα (Homo sapiens, UniProt P10276); assay: ligand binding assay, RARα
T3 sequence (P10276 1-462): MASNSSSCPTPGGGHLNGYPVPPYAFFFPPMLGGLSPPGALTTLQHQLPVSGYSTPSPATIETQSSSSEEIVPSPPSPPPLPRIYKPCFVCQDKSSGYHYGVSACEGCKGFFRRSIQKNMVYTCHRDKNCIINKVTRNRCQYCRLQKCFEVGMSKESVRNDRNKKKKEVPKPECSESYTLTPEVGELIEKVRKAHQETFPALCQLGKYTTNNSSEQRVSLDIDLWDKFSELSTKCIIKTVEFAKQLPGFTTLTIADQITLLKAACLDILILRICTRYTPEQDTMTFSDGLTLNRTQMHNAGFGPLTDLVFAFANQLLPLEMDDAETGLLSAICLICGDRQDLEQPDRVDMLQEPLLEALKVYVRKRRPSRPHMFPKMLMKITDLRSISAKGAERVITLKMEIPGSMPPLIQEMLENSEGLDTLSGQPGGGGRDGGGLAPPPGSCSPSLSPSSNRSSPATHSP
Excerpt: as §1, §2, §3

RXRγ = target: T4, RXRγ (Mus musculus, UniProt P28705); assay: holoreceptor transactivation assay, RXRγ; assay type: cell-based; conditions: for EC50: holoreceptor transactivation, RXRγ, read-out: RXR Trans. EC50 γ; for Emax: relative to 10^-6 M cyclopropyl penta-2,4-dienoic acid reference (RXRs), read-out: % efficacy (RXRγ transactivation)
T4 construct: expressed in transfected cells
T4 sequence (P28705 1-463): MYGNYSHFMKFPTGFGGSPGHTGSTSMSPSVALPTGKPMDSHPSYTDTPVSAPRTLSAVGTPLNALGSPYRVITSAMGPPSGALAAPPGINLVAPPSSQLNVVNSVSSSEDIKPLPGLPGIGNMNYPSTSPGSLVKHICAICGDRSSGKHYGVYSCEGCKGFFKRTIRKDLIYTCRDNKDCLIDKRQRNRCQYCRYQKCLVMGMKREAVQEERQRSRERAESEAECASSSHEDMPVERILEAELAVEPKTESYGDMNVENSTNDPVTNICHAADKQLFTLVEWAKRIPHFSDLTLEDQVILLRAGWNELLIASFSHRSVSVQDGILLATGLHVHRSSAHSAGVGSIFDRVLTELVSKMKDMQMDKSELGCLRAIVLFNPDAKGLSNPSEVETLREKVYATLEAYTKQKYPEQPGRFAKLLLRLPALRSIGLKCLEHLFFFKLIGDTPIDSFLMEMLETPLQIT
Excerpt: as §1, §2, §3

Ki (RARγ) [µM]	Ki (RXRβ) [µM]	Ki (RXRα) [µM]	Ki (RARα; read-out: RAR Bind. Ki α) [µM]	EC50 (RXRγ) [µM]	Emax (RXRγ) [%]	Ki (RARα; heading: RAR Bind. Ki α) [µM]	Structure (SMILES)
2	0.342	0.222	> 1	0.23	122	–	CCN(c1ccc(C(=O)O)cc1)c1cc(C(C)(C)C)c2c(c1)C(C)(C)CO2 [Compound 32, 4-[Ethyl-(7-t-butyl-3,3-dimethyl-2,3-dihydro-benzofuran-5-yl)-amino]-benzoic acid]
3.3	4.6	11	16	> 1	70	–	CC(C)c1cc(N(C)c2ccc(C(=O)O)cc2)cc2c1OCC2(C)C [Compound 30, 4-[Methyl-(3,3-dimethyl-7-isopropyl-2,3-dihydro-benzofuran-5-yl)-amino]-benzoic acid]
2.7	0.178	0.071	12	0.017	97	–	Cc1c(N(c2ccc(C(=O)O)cc2)C(C)C)cc2c(c1C(C)(C)C)OCC2(C)C [Compound 73, 4-[Isopropyl-(7-t-butyl-3,3,6-trimethyl-2,3-dihydro-benzofuran-5-yl)-amino]-benzoic acid]
4.9	> 1	> 1	> 10	0.511	132	–	CCc1cc(N(c2ccc(C(=O)O)cc2)C(C)C)cc2c1OCC2(C)C [Compound 42, 4-[Isopropyl-(3,3-dimethyl-7-ethyl-2,3-dihydro-benzofuran-5-yl)-amino]-benzoic acid]
1.6	0.215	0.011	> 1	0.02	48	–	CC(C)N(c1ccc(C(=O)O)cc1)c1cc(C(C)(C)C)c2c(c1)C(C)(C)CO2 [Compound 44, 4-[Isopropyl-(7-t-butyl-3,3-dimethyl-2,3-dihydro-benzofuran-5-yl)-amino]-benzoic acid]
2.6	–	> 1	> 10	0.019	108	–	CC(C)c1cc(N(c2ccc(C(=O)O)cc2)C(C)C)cc2c1OCC2(C)C [Compound 43]

Further lines, the compound ahead of its results:

Structure (SMILES)	Ki (RARγ) [µM]	Ki (RXRβ) [µM]	Ki (RXRα) [µM]	Ki (RARα; read-out: RAR Bind. Ki α) [µM]	EC50 (RXRγ) [µM]	Emax (RXRγ) [%]	Ki (RARα; heading: RAR Bind. Ki α) [µM]
CCN(c1ccc(C(=O)O)cc1)c1cc(C(C)C)c2c(c1)C(C)(C)CO2 [Compound 31, 4-[Ethyl-(3,3-dimethyl-7-isopropyl-2,3-dihydro-benzofuran-5-yl)-amino]-benzoic acid]	4	0.752	0.0018	25	0.085	125	–
CCCCN(c1ccc(C(=O)O)cc1)c1ccc2c(c1)C(C)(C)OC2(C)C [Compound 85, 4-[n-Butyl-(1,1,3,3-tetramethyl-1,3-dihydro-isobenzofuran-5-yl)-amino]-benzoic acid]	> 10	> 1	> 1	> 10	0.7	197	–
CCCN(c1ccc(C(=O)O)cc1)c1ccc2c(c1)C(C)(C)OC2(C)C [Compound 84, 4-[n-Propyl-(1,1,3,3-tetramethyl-1,3-dihydro-isobenzofuran-5-yl)-amino]-benzoic acid]	> 10	2	1.5	–	0.051	124	> 10
CC(C)N(c1ccc(C(=O)O)cc1)c1ccc2c(c1)C(C)(C)OC2(C)C [Compound 87, 4-[i-Propyl-(1,1,3,3-tetramethyl-1,3-dihydro-isobenzofuran-5-yl)-amino]-benzoic acid]	> 10	2.7	0.65	> 10	0.765	134	–
CCN(c1ccc(C(=O)O)cc1)c1ccc2c(c1)C(C)(C)OC2(C)C [Compound 83, 4-[Ethyl-(1,1,3,3-tetramethyl-1,3-dihydro-isobenzofuran-5-yl)-amino]-benzoic acid]	> 10	> 1	1	> 10	0.063	140	–
CCN(c1ccc(C(=O)O)cc1)c1cc(C)c2c(c1)C(C)(C)CO2 [Compound 27, 4-[Ethyl-(3,3,7-trimethyl-2,3-dihydro-benzofuran-5-yl)-amino]-benzoic acid]	> 30	> 100	15	30	> 1	–	–
CCc1cc(N(CC)c2ccc(C(=O)O)cc2)cc2c1OCC2(C)C [Compound 29, 4-[Ethyl-(3,3-dimethyl-7-ethyl-2,3-dihydro-benzofuran-5-yl)-amino]-benzoic acid]	8.4	> 1	> 1	> 10	0.692	130	–

— patent US6093838A, “Amines substituted with a dihydro-benzofuranyl or with a dihydro-isobenzofuranyl group, an aryl or heteroaryl group and an alkyl group, having retinoid-like biological activity” (Allergan Sales, Inc., priority 1999, dated 2000)
